From US12655185B2, “Peptide inhibitors of interleukin-23 and their use to treat inflammatory diseases” (Protagonist Therapeutics, Inc., priority 2016, dated 2026) come the findings set out here.

Bridge positions count the residues as written; N and C are the ends. Peptide text beside a SMILES is read from it.

In test [1] the target is T1, IL-23 binding to IL23R_huFC (human IL-23R) (Homo sapiens, UniProt P29460+Q9NPF7).
T1 sequence (Q9NPF7 20-189): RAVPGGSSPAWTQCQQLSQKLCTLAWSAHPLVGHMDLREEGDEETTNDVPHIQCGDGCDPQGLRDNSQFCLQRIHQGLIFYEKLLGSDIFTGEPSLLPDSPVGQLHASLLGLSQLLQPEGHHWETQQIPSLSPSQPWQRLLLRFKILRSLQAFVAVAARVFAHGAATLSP
T1 sequence (P29460 23-328): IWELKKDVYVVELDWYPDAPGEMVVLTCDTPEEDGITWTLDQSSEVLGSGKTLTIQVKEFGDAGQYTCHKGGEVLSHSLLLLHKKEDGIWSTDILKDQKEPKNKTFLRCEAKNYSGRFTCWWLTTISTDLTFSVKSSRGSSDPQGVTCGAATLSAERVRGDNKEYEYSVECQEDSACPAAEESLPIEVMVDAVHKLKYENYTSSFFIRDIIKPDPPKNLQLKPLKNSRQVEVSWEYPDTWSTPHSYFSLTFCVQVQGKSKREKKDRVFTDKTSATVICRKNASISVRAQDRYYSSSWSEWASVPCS
Kind of test: IL23-IL23R Competitive Binding ELISA. As to conditions: inhibition of IL-23/IL-23R binding; IL-23 0.9 nM; class symbols; read-out: IC50 IL23R_huFC. On the procedure: Immulon® 4HBX plate was coated with 200 ng/well of IL23R_huFC and incubated overnight at 4° C. […] Serial dilutions of test peptides and IL-23 at a final concentration of 0.9 nM diluted in PBS were added to each well and incubated for 2 hours at room temperature. After the wells were washed, bound IL-23 was detected by incubation with 50 ng/well of goat anti-p40 polyclonal antibodies (R&D Systems #AF309) diluted in PBS for 1 hour at room temperature. The wells were again washed four times with PBST. […] The plate was finally washed as above. Signals were visualized with TMB One Component HRP Membrane Substrate, quenched with 2 M sulfuric acid and read spectrophotometrically at 450 nm.
Background: ELISA stands for enzyme-linked immunosorbent assay.

Test [2] concerns the target T2, mouse IL-23 binding to mouse IL-23R (Mus musculus, UniProt P43432+Q9EQ14).
T2 sequence (Q9EQ14 22-196): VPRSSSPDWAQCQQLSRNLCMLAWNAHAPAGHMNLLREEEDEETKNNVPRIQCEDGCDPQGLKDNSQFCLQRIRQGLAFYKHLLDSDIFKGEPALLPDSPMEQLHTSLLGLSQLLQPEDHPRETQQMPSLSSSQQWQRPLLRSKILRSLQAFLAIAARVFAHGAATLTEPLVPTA
T2 sequence (P43432 23-335): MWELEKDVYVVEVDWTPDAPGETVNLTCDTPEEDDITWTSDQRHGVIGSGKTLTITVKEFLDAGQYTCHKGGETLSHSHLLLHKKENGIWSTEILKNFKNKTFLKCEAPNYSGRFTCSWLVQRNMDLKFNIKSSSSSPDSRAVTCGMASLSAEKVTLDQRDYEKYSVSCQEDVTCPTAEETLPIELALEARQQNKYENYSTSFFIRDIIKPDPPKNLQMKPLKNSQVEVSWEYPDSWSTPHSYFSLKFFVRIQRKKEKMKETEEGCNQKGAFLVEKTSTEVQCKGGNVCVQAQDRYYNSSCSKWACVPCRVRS
As to the kind of experiment: Mouse IL23/IL23R huFc ELISA. As to conditions: data not shown. On the procedure: Certain peptides were tested to identify peptides that inhibit the binding of IL-23 to human IL-23R or mouse IL-23R, and inhibit IL-23/IL-23R functional activity, as described below. Each of these peptides comprised a disulfide bond between X5 and X34, except for Peptide 1, which comprises a disulfide bond between X4 and X33.

In test [3] the target is T3, IL-23 binding to human IL-12Rβ1_huFC (Homo sapiens, UniProt P29460+Q9NPF7).
T3 sequence (Q9NPF7 20-189): T1 sequence (Q9NPF7 20-189)
T3 sequence (P29460 23-328): T1 sequence (P29460 23-328)
Kind of test: Human IL23/IL12Rβ1 huFc ELISA. To be noted: for blocking of binding of IL-23 to IL-12Rβ1: result in words. Here is the method:
(§1) The ability of Peptide 10 to block binding of IL-23 to IL-12Rβ1 or binding of IL-12 to IL-12Rβ1 was also determined. Human IL-12Rβ1 ELISA assays were performed as follows: an assay plate was coated with 100 ng/well of human IL-12Rβ1_huFC and incubated overnight at 4° C. The wells were washed, blocked, and washed again. Serial dilutions of test peptides and either IL-23 or IL-12 at a fixed concentration corresponding to EC50 values were added to each well, and incubated for 2 hours at room temperature. After the wells were washed, bound IL-23 were detected with goat anti-p40 polyclonal antibodies followed by an HRP conjugated donkey anti-goat IgG, and bound IL-12 were detected with a biotin conjugated anti-p40 monoclonal antibody followed by HRP conjugated streptavidin. Signals were visualized with TMB One Component HRP Membrane Substrate and quenched with 2 M sulfuric acid.

For test [4], the target named is T4, IL-12 binding to human IL-12Rβ1_huFC (Homo sapiens, UniProt P29459+P29460).
T4 sequence (P29459 23-219): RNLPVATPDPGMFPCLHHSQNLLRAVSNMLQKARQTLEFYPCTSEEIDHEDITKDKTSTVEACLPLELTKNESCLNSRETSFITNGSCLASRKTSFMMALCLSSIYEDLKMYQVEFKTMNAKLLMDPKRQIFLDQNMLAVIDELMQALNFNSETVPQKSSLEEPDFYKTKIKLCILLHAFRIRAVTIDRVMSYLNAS
T4 sequence (P29460 23-328): T1 sequence (P29460 23-328)
As to the kind of experiment: Human IL12/IL12Rβ1 huFc ELISA. Here is the method: as §1

Test [5] deals with human IL-23-dependent release of IL-17 from mouse splenocytes. As to the kind of experiment: Mouse splenocyte assay. In kind it is cell-based. To be noted: IL-17A release; IL-23 20 ng/mL; 67 hours. Here is the method:
Frozen mouse splenocytes (Hooke Lab), suspended in RPMI Medium 1640 (Life technologies #22400-089) supplemented with 10% heat inactivated FBS (Life technologies #16140-071), 1×MEM Non-Essential Amino Acid Solution (Life technologies #11140-050), 1 mM sodium pyruvate (Life technologies #11360-070), 100 units of Penicillin-Streptomycin (Life technologies #15140-122, 0.05 mM 2-mercaptoethanol (Life technologies #21985-023) and recombinant human IL-2 (R&D Systems #202-IL-010/CF), were seeded at 4×10E5 cells/well in a 96 well tissue culture plate. Serial dilutions of test peptides and IL-23 at a final concentration of 20 ng/mL were preincubated in a separate assay plate for 60 minutes at 37° C. in a 5% CO2 humidified incubator. Preincubated samples were then added to the culture plate containing splenocytes and incubated for an additional 67 hours at 37° C. in a 5% CO2 humidified incubator. A sandwich ELISA kit for mouse IL17A (Biolegend #436204) was used to measure the amount of IL-17A in each sample supernatants, according to manufacturer's instructions.

Test [6] addresses IL-6 binding to IL-6R (Homo sapiens, UniProt P05231). Kind of test: Binding of IL-6 to IL-6R. As to conditions: data not shown.
Test [7] deals with IL-13 binding to IL-13Ra1 (Homo sapiens, UniProt P35225). As to the kind of experiment: Binding of IL-13 to IL-13Ra1. As to conditions: data not shown.

On to `CC[C@H](C)[C@@H]1NC(=O)[C@H](CCCCN)NC(=O)[C@H](C)NC(=O)[C@H](Cc2c[nH]c3ccccc23)NC(=O)[C@H](CCCNC(=N)N)NC(=O)[C@H](CCC(N)=O)NC(=O)[C@H](CCC(=O)O)NC(=O)[C@H](CCC(N)=O)NC(=O)[C@H](CC(N)=O)NC(=O)[C@H](CC(C)C)NC(=O)[C@H](CC(N)=O)NC(=O)[C@@H]2CCCN2C(=O)[C@H](CC(=O)O)NC(=O)[C@H](C(C)C)NC(=O)CNC(=O)[C@H](C)NC(=O)[C@H](CCC(=O)O)NC(=O)[C@H](CO)NC(=O)[C@H](CCSC)NC(=O)[C@H](CCCNC(=N)N)NC(=O)[C@H](CCCNC(=N)N)NC(=O)[C@H](CC(C)C)NC(=O)[C@@H](NC(=O)[C@H](CCC(N)=O)NC(=O)[C@H](CCSC)NC(=O)[C@H](CC(N)=O)NC(=O)[C@H](Cc2ccccc2)NC(C)=O)CSSC[C@@H](C(N)=O)NC(=O)[C@H](CC(=O)O)NC(=O)[C@H](CC(=O)O)NC(=O)[C@H](CCSC)NC(=O)[C@H]([C@@H](C)CC)NC(=O)[C@H](CO)NC(=O)[C@H](CCCCN)NC1=O` [Peptide 10] (Ac-FNMQCLRRMSEAGVDPNLNQEQRWAKIKSIMDDC-NH2; disulfide 5-34), for which the IC50 in test [1] was 1 to 10 µM; in test [3] (competition binding, IL-23 at EC50) it was > 100 µM; in test [4] (competition binding, IL-12 at EC50, read-out: Human IL12/IL12Rβ1huFc ELISA), > 100 µM; in test [5] it was 1.6 µM. The “blocking of binding of mouse IL-23 to mouse IL-23R” value in test [2] is on record as “blocked”. Further, in test [3], the “blocking of binding of IL-23 to IL-12Rβ1” value is listed as “did not block”. The “blocking of binding of IL-12 to IL12Rβ1” value in test [4] (result in words) is on record as “did not block”. For the same compound, the “blocking of binding of IL-6 to IL-6R” value in test [6] is recorded as “did not block”. In addition, the “blocking of binding of IL-13 to IL-13Ra1” value in test [7] is reported as “did not block”.

With `CC[C@H](C)[C@@H]1NC(=O)[C@H](CO)NC(=O)[C@H](CCCCN)NC(=O)[C@H](C)NC(=O)[C@H](CCCCN)NC(=O)[C@H](C)NC(=O)[C@H](Cc2c[nH]c3ccccc23)NC(=O)[C@H](CCCNC(=N)N)NC(=O)[C@H](CCC(N)=O)NC(=O)[C@H](CCC(=O)O)NC(=O)[C@H](CCC(N)=O)NC(=O)[C@H](CC(N)=O)NC(=O)[C@H](CC(C)C)NC(=O)[C@H](CC(N)=O)NC(=O)[C@@H]2CCCN2C(=O)[C@H](CC(=O)O)NC(=O)[C@H](C(C)C)NC(=O)CNC(=O)[C@H](C)NC(=O)[C@H](CCC(=O)O)NC(=O)[C@H](CO)NC(=O)[C@H](CCSC)NC(=O)[C@H](CCCNC(=N)N)NC(=O)[C@H](CCCNC(=N)N)NC(=O)[C@H](CC(C)C)NC(=O)[C@@H](NC(=O)[C@H](CCC(N)=O)NC(=O)[C@H](CCSC)NC(=O)[C@H](CC(N)=O)NC(=O)[C@H](Cc2ccccc2)NC(C)=O)CSSC[C@@H](C(N)=O)NC(=O)[C@H](CC(=O)O)NC(=O)[C@H](CC(=O)O)NC(=O)[C@H](CCSC)NC1=O` [Peptide 21] (Ac-FNMQCLRRMSEAGVDPNLNQEQRWAKAKSIMDDC-NH2; disulfide 5-34), the IC50 in test [1] was in the range of 1 to 10 µM.

`CC[C@H](C)[C@@H]1NC(=O)[C@H](CCCCN)NC(=O)[C@H](C)NC(=O)[C@H](Cc2c[nH]c3ccccc23)NC(=O)[C@H](CCCNC(=N)N)NC(=O)[C@H](CCC(N)=O)NC(=O)[C@H](CCC(=O)O)NC(=O)[C@H](CCC(N)=O)NC(=O)[C@H](CC(N)=O)NC(=O)[C@H](CC(C)C)NC(=O)[C@H](CC(N)=O)NC(=O)[C@@H]2CCCN2C(=O)[C@H](CC(=O)O)NC(=O)[C@H](C(C)C)NC(=O)CNC(=O)[C@H](C)NC(=O)[C@H](CCC(=O)O)NC(=O)[C@H](CO)NC(=O)[C@H](CCSC)NC(=O)[C@H](CCCNC(=N)N)NC(=O)[C@H](CCCNC(=N)N)NC(=O)[C@H](CC(C)C)NC(=O)[C@@H](NC(=O)[C@H](CCC(N)=O)NC(=O)[C@H](CCSC)NC(=O)[C@H](CC(N)=O)NC(=O)[C@H](Cc2ccccc2)NC(C)=O)CSSC[C@@H](C(N)=O)NC(=O)[C@H](CC(=O)O)NC(=O)[C@H](CC(=O)O)NC(=O)[C@H](CCSC)NC(=O)[C@H]([C@@H](C)CC)NC(=O)[C@H](CO)NC(=O)[C@H](C)NC1=O` [Peptide 22] (Ac-FNMQCLRRMSEAGVDPNLNQEQRWAKIASIMDDC-NH2; disulfide 5-34): in test [1], the IC50 fell in the range of 1 to 10 µM.

As for “Ustekinumab: a humanized antibody that binds IL-23 (p40 subunit), approved for the treatment of psoriasis [reference compound]”, in test [3], the “blocking of binding of IL-23 to IL-12Rβ1” value is reported as “blocked”. The Mouse splenocyte assay in test [5] was determined as 0.06 µg/mL.
